Assay: Capsule perfume leakage in liquid fabric enhancer (LFE), headspace SPME GC/MS
Type: physicochemical
Conditions: LFE Composition 1
Description: The testing of capsule leakage in liquid compositions (e.g., liquid fabric enhancer/“LFE” compositions and/or heavy-duty liquid/“HDL” detergents) is performed as follows. […] The 1 gram aliquot in the 7 ml vial is then mixed on a stirring plate for 24 h at 500 rpm, thereby ensuring that the capsules are broken by the grinding action of the stir bar against the bottom of the 7 ml vial. Optical microscopy can be used to verify that no more intact capsules remain. In case such capsules are found, the step is to repeated for an additional 24 h, or until all or almost all capsules are broken. Then, the formulation containing broken capsules is introduced into GC vials in a similar manner as for step (a). This yields total oil samples. […] It is to be noted that the capsule sample and the total oil sample are not analyzed on the same day, as there is a need to prepare the total oil sample after the capsule sample has been removed from storage. […] The perfume oil composition formulated herein is representative of the perfume oil composition that is present in the slurry. Then the free oil formulation is introduced into GC vials in a similar manner as for step (a). This yields reference samples, which must be used when analyzing both the capsule sample and the total oil sample. […] Two headspace vials are prepared for each sample. The sealed headspace vials are then allowed to equilibrate. Samples reach equilibrium after 3 hours at room temperature, but can be left to sit longer without detriment or change to the results, up until 24 hours after sealing the headspace vial. After equilibrating, the samples are analyzed by GC/MS. […] The perfume composition is analyzed by fast GC/MS in full scan mode. Ion extraction of the specific mass for each component is obtained. The leakage is calculated as follows, separately for the capsule sample and total oil sample, where “Area” denotes the area under the chromatogram peak corresponding to the PRM of interest: Once calculated for all PRMs for both the total oil sample and the capsule sample, the corrected PRM leakage can be calculated using the following formula: Once the corrected PRM leakage has been calculated for all PRMs, the Average leakage can be found by taking the arithmetic mean of each corrected PRM leakage. […] The resulting products are stored for one week at 35° C. At the end of the storage period, samples of each product composition are analyzed for perfume leakage out of the capsule using headspace analysis. The data is reported as a percentage, determined by comparing the amount of the individual perfume raw materials found in the headspace to the amount originally provided to the capsules.

[1] = PRM of Perfume 4 out of Comparative Example 9-1 capsules (per EP3078415A)
[2] = PRM of Perfume 4 out of Comparative Example 9-2 capsules (per EP3078415A, additional TEOS)
[3] = PRM of Perfume 4 out of Example 9-1 capsules (Sample E)
[4] = PRM of Perfume 3 out of Capsule Sample D
[5] = PRM of Perfume 2 out of Capsule Sample C

## CCCCCCOC(=O)c1ccccc1O [Hexyl Salicylate]
[1]
  Leakage (as %) after 1 week at 35° C.: 34%
[2]
  Leakage (as %) after 1 week at 35° C.: 28%
[3]
  Leakage (as %) after 1 week at 35° C.: 3%

## CCCCCC/C(C=O)=C\c1ccccc1 [Hexylcinnamyl aldehyde]
[1]
  Leakage (as %) after 1 week at 35° C.: 22%
[2]
  Leakage (as %) after 1 week at 35° C.: 36%
[3]
  Leakage (as %) after 1 week at 35° C.: 7%

## CC1=CC(C)C(C=O)CC1 (stereo not drawn) [Ligustral-1]
[4]
  Leakage (as %) after 1 week at 35° C.: 8%

## CC(C=O)Cc1ccc(C(C)(C)C)cc1 (stereo not drawn) [Lilial]
[1]
  Leakage (as %) after 1 week at 35° C.: 46%
[2]
  Leakage (as %) after 1 week at 35° C.: 61%
[3]
  Leakage (as %) after 1 week at 35° C.: 30%

## CCCCCCCCCC(C)C=O (stereo not drawn) [Methyl nonyl acetaldehyde]
[4]
  Leakage (as %) after 1 week at 35° C.: 4%

## CC(=O)OC(C)c1ccccc1 (stereo not drawn) [Methyl phenyl carbinyl acetate]
[4]
  Leakage (as %) after 1 week at 35° C.: 7%

## CC(C)=CC1CC(C)CCO1 (stereo not drawn) [Rose Oxide]
[4]
  Leakage (as %) after 1 week at 35° C.: 8%

## CCC=C(C)C(O)CCCCC (stereo not drawn) [Undecavertol]
[4]
  Leakage (as %) after 1 week at 35° C.: 11%

## COC(=O)OC1CC/C=C\CCC1 (stereo not drawn) [[(4Z)-1-cyclooct-4-enyl] methyl carbonate]
[5]
  Leakage (as %) after 1 week at 35° C.: 5%

## CC1=CCC(C(C)(C)O)CC1 (stereo not drawn) [alpha-Terpineol]
[4]
  Leakage (as %) after 1 week at 35° C.: 10%

## CC(=O)/C=C/C1=C(C)CCCC1(C)C [beta ionone]
[4]
  Leakage (as %) after 1 week at 35° C.: 5%

## CCOC(=O)C1CCC(C(=O)OCC)CC1 (stereo not drawn) [diethyl 1,4-cyclohexane dicarboxylate]
[5]
  Leakage (as %) after 1 week at 35° C.: 3%
